Measurements published in patent US9302999B2, “Substituted triazoles as herbicides” (E. I. DU PONT DE NEMOURS AND COMPANY, priority 2012, dated 2016).

Key:
Assay type in all cases: in vivo
[1] = system: barnyardgrass (Echinochloa crus-galli); assay: Test A pre-/postemergence: barnyardgrass
Method in brief: (§1)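 Injury is scored visually on a scale where 0 means no effect and 100 complete control, comparing treated with untreated plants after approximately ten greenhouse days. Both preemergence and postemergence applications are made at the same time.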

[2] = system: crabgrass, large (large crabgrass, Digitaria sanguinalis); assay: Test A pre-/postemergence: crabgrass, large
Method in brief: as §1

[3] = system: foxtail, giant (giant foxtail, Setaria faberii); assay: Test A pre-/postemergence: foxtail, giant
Method in brief: as §1

[4] = system: morningglory (Ipomoea spp.); assay: Test A pre-/postemergence: morningglory
Method in brief: as §1

[5] = system: pigweed (Amaranthus retroflexus); assay: Test A pre-/postemergence: pigweed
Method in brief: as §1

[6] = system: velvetleaf (Abutilon theophrasti); assay: Test A pre-/postemergence: velvetleaf
Method in brief: as §1

[7] = system: wheat (Triticum aestivum); assay: Test A pre-/postemergence: wheat
Method in brief: as §1

corn (Zea mays) = assay: Test A pre-/postemergence: corn
Method in brief: as §1

rice (Oryza sativa) [8] = assay: Test B flooded paddy: rice; conditions: Flood; 250 g ai/ha; applied to paddy water at 2-leaf stage; visually evaluated after 13 to 15 days
Experimental: (§2) Seeds selected from rice (Oryza sativa), sedge, umbrella (small-flower umbrella sedge Cyperus difformis), ducksalad (Heteranthera limosa), and barnyardgrass (Echinochloa crus-galli) were grown to the 2-leaf stage for testing. At time of treatment, test pots were flooded to 3 cm above the soil surface, treated by application of test compounds directly to the paddy water, and then maintained at that water depth for the duration of the test.
(§3) Treated plants and controls were maintained in a greenhouse for 13 to 15 days, after which time all species were compared to controls and visually evaluated. Plant response ratings, summarized in Table B, are based on a scale of 0 to 100 where 0 is no effect and 100 is complete control. A dash (-) response means no test result.

[9] = system: sedge, umbrella (small-flower umbrella sedge Cyperus difformis); assay: Test B flooded paddy: sedge, umbrella; conditions: Flood; 250 g ai/ha; applied to paddy water at 2-leaf stage; visually evaluated after 13 to 15 days
Experimental: as §2, §3

[10] = system: ducksalad (Heteranthera limosa); assay: Test B flooded paddy: ducksalad; conditions: Flood; 250 g ai/ha; applied to paddy water at 2-leaf stage; visually evaluated after 13 to 15 days
Experimental: as §2, §3

[11] = system: barnyardgrass (Echinochloa crus-galli); assay: Test B flooded paddy: barnyardgrass; conditions: Flood; 250 g ai/ha; applied to paddy water at 2-leaf stage; visually evaluated after 13 to 15 days
Experimental: as §2, §3

rice (Oryza sativa) [12] = assay: Test C flooded paddy test: rice; conditions: scale 0 to 100 (0 no effect, 100 complete control)
Method in brief: (§4)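 Plants were grown to the 2-leaf stage, pots flooded to 3 cm above soil, and test compounds applied directly to the paddy water, with that depth held throughout. After 13 to 15 days in a greenhouse, injury was visually rated against controls on a 0 (no effect) to 100 (complete control) scale.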

[13] = system: sedge, umbrella (small-flower umbrella sedge, Cyperus difformis); assay: Test C flooded paddy test: sedge, umbrella; conditions: scale 0 to 100 (0 no effect, 100 complete control)
Method in brief: as §4

[14] = system: ducksalad (Heteranthera limosa); assay: Test C flooded paddy test: ducksalad; conditions: scale 0 to 100 (0 no effect, 100 complete control)
Method in brief: as §4

[15] = system: barnyardgrass (Echinochloa crus-galli); assay: Test C flooded paddy test: barnyardgrass; conditions: scale 0 to 100 (0 no effect, 100 complete control)
Method in brief: as §4

[16] = Postemergence, 125 g ai/ha, 0 to 100 scale, 0 is no effect, 100 is complete control
[17] = Postemergence, 500 g ai/ha, visual rating on 0 to 100 scale (0 no effect, 100 complete control), approximately ten days
[18] = Preemergence, 125 g ai/ha, 0 to 100 scale (0 no effect, 100 complete control)
[19] = Preemergence, 500 g ai/ha, 0 to 100 scale, 0 is no effect, 100 is complete control
[20] = Postemergence, 1000 g ai/ha, visual rating on 0 to 100 scale (0 no effect, 100 complete control), approximately ten days
[21] = Preemergence, 1000 g ai/ha, 0 to 100 scale, 0 is no effect, 100 is complete control
[22] = Flood (flooded paddy test), 125 g ai/ha, visual rating after 13 to 15 days
[23] = Flood (flooded paddy test), 250 g ai/ha, visual rating after 13 to 15 days
[24] = Preemergence, 125 g ai/ha, 0 to 100 scale where 0 is no effect and 100 is complete control
[25] = Preemergence, 500 g ai/ha, 0 to 100 scale (0 no effect, 100 complete control)

Cc1nn(-c2ccnc(F)c2)nc1C(=O)c1cccc(C(F)(F)F)c1 [Compound 3]
Barnyardgrass plant response rating [1, 16]: 30
Barnyardgrass plant response rating [1, 17]: 50
Plant response rating, Barnyardgrass [1, 18]: 10
Plant response rating, Barnyardgrass [1, 19]: 50
Crabgrass, Large plant response rating [2, 16]: 40
Crabgrass, Large plant response rating [2, 17]: 90
Plant response rating, Crabgrass, Large [2, 18]: 90
Plant response rating, Crabgrass, Large [2, 19]: 100
Foxtail, Giant plant response rating [3, 16]: 30
Foxtail, Giant plant response rating [3, 17]: 90
Plant response rating, Foxtail, Giant [3, 18]: 90
Plant response rating, Foxtail, Giant [3, 19]: 100
Morningglory plant response rating [4, 16]: 30
Morningglory plant response rating [4, 17]: 100
Plant response rating, Morningglory [4, 18]: 0
Plant response rating, Morningglory [4, 19]: 50
Pigweed plant response rating [5, 16]: 90
Pigweed plant response rating [5, 17]: 100
Plant response rating, Pigweed [5, 18]: 70
Plant response rating, Pigweed [5, 19]: 100
Velvetleaf plant response rating [6, 16]: 50
Velvetleaf plant response rating [6, 17]: 60
Plant response rating, Velvetleaf [6, 18]: 0
Plant response rating, Velvetleaf [6, 19]: 10
Wheat plant response rating [7, 16]: 30
Wheat plant response rating [7, 17]: 40
Plant response rating, Wheat [7, 18]: 0
Plant response rating, Wheat [7, 19]: 40
Corn plant response rating (corn (Zea mays); [16]): 20
Corn plant response rating (corn (Zea mays); [17]): 30
Plant response rating, Corn (corn (Zea mays); [18]): 0
Plant response rating, Corn (corn (Zea mays); [19]): 10
Plant response rating, Rice (0 to 100 scale, 0 is no effect, 100 is complete control) (rice (Oryza sativa) [8]): 0
Plant response rating, Sedge, Umbrella (0 to 100 scale, 0 is no effect, 100 is complete control) [9]: 0
Plant response rating, Ducksalad (0 to 100 scale, 0 is no effect, 100 is complete control) [10]: 0
Plant response rating, Barnyardgrass (0 to 100 scale, 0 is no effect, 100 is complete control) [11]: 0

Cc1nn(-c2ccnc(Cl)c2)nc1C(=O)c1cccc(C(F)(F)F)c1 [Compound 4]
Barnyardgrass plant response rating [1, 16]: 20
Barnyardgrass plant response rating [1, 17]: 30
Plant response rating, Barnyardgrass [1, 18]: 10
Plant response rating, Barnyardgrass [1, 19]: 60
Crabgrass, Large plant response rating [2, 16]: 30
Crabgrass, Large plant response rating [2, 17]: 70
Plant response rating, Crabgrass, Large [2, 18]: 80
Plant response rating, Crabgrass, Large [2, 19]: 90
Foxtail, Giant plant response rating [3, 16]: 20
Foxtail, Giant plant response rating [3, 17]: 40
Plant response rating, Foxtail, Giant [3, 18]: 80
Plant response rating, Foxtail, Giant [3, 19]: 100
Morningglory plant response rating [4, 16]: 20
Morningglory plant response rating [4, 17]: 40
Plant response rating, Morningglory [4, 18]: 0
Plant response rating, Morningglory [4, 19]: 40
Pigweed plant response rating [5, 16]: 80
Pigweed plant response rating [5, 17]: 100
Plant response rating, Pigweed [5, 18]: 50
Plant response rating, Pigweed [5, 19]: 100
Velvetleaf plant response rating [6, 16]: 30
Velvetleaf plant response rating [6, 17]: 30
Plant response rating, Velvetleaf [6, 18]: 0
Plant response rating, Velvetleaf [6, 19]: 0
Wheat plant response rating [7, 16]: 20
Wheat plant response rating [7, 17]: 40
Plant response rating, Wheat [7, 18]: 0
Plant response rating, Wheat [7, 19]: 30
Corn plant response rating (corn (Zea mays); [16]): 20
Corn plant response rating (corn (Zea mays); [17]): 30
Plant response rating, Corn (corn (Zea mays); [18]): 0
Plant response rating, Corn (corn (Zea mays); [19]): 0
Plant response rating, Rice (0 to 100 scale, 0 is no effect, 100 is complete control) (rice (Oryza sativa) [8]): 0
Plant response rating, Sedge, Umbrella (0 to 100 scale, 0 is no effect, 100 is complete control) [9]: 70
Plant response rating, Ducksalad (0 to 100 scale, 0 is no effect, 100 is complete control) [10]: 40
Plant response rating, Barnyardgrass (0 to 100 scale, 0 is no effect, 100 is complete control) [11]: 20

CCc1nn(-c2ccc(C(F)(F)F)cc2)nc1Cn1ccc(C(F)(F)F)n1 [Compound 118]
Barnyardgrass plant response rating [1, 20]: 30
Barnyardgrass plant response rating [1, 21]: 70
Crabgrass, Large plant response rating [2, 20]: 90
Crabgrass, Large plant response rating [2, 21]: 100
Foxtail, Giant plant response rating [3, 20]: 60
Foxtail, Giant plant response rating [3, 21]: 100
Morningglory plant response rating [4, 20]: 100
Morningglory plant response rating [4, 21]: 20
Pigweed plant response rating [5, 20]: 100
Pigweed plant response rating [5, 21]: 100
Velvetleaf plant response rating [6, 20]: 70
Velvetleaf plant response rating [6, 21]: 10
Wheat plant response rating [7, 20]: 20
Wheat plant response rating [7, 21]: 10
Corn plant response rating (corn (Zea mays); [20]): 30
Corn plant response rating (corn (Zea mays); [21]): 20
Plant response rating, Rice (rice (Oryza sativa) [12]; [22]): 15
Plant response rating, Rice (rice (Oryza sativa) [12]; [23]): 20
Plant response rating, Rice (rice (Oryza sativa) [12]; Flood, 31 g ai/ha): 0
Plant response rating, Rice (rice (Oryza sativa) [12]; Flood, 62 g ai/ha): 0
Plant response rating, Sedge, Umbrella [13, 22]: 70
Plant response rating, Sedge, Umbrella [13, 23]: 75
Plant response rating, Sedge, Umbrella ([13]; Flood, 31 g ai/ha): 40
Plant response rating, Sedge, Umbrella ([13]; Flood, 62 g ai/ha): 65
Plant response rating, Ducksalad [14, 22]: 70
Plant response rating, Ducksalad [14, 23]: 70
Plant response rating, Ducksalad ([14]; Flood, 31 g ai/ha): 0
Plant response rating, Ducksalad ([14]; Flood, 62 g ai/ha): 30
Plant response rating, Barnyardgrass [15, 22]: 50
Plant response rating, Barnyardgrass [15, 23]: 65
Plant response rating, Barnyardgrass ([15]; Flood, 31 g ai/ha): 20
Plant response rating, Barnyardgrass ([15]; Flood, 62 g ai/ha): 30

CCc1nn(-c2ccc(C(F)(F)F)cc2)nc1Cn1cc(C(F)(F)F)nc1Cl [Compound 122]
Barnyardgrass plant response rating [1, 16]: 40
Barnyardgrass plant response rating [1, 17]: 70
Plant response rating, Barnyardgrass [1, 24]: 20
Plant response rating, Barnyardgrass [1, 25]: 70
Crabgrass, Large plant response rating [2, 16]: 80
Crabgrass, Large plant response rating [2, 17]: 90
Plant response rating, Crabgrass, Large [2, 24]: 90
Plant response rating, Crabgrass, Large [2, 25]: 100
Foxtail, Giant plant response rating [3, 16]: 60
Foxtail, Giant plant response rating [3, 17]: 90
Plant response rating, Foxtail, Giant [3, 24]: 90
Plant response rating, Foxtail, Giant [3, 25]: 100
Morningglory plant response rating [4, 16]: 90
Morningglory plant response rating [4, 17]: 100
Plant response rating, Morningglory [4, 24]: 20
Plant response rating, Morningglory [4, 25]: 50
Pigweed plant response rating [5, 16]: 100
Pigweed plant response rating [5, 17]: 100
Plant response rating, Pigweed [5, 24]: 90
Plant response rating, Pigweed [5, 25]: 100
Velvetleaf plant response rating [6, 16]: 80
Velvetleaf plant response rating [6, 17]: 100
Plant response rating, Velvetleaf [6, 24]: 30
Plant response rating, Velvetleaf [6, 25]: 60
Wheat plant response rating [7, 16]: 20
Wheat plant response rating [7, 17]: 30
Plant response rating, Wheat [7, 24]: 0
Plant response rating, Wheat [7, 25]: 20
Corn plant response rating (corn (Zea mays); [16]): 20
Corn plant response rating (corn (Zea mays); [17]): 30
Plant response rating, Corn (corn (Zea mays); [24]): 10
Plant response rating, Corn (corn (Zea mays); [25]): 20
Plant response rating, Rice (rice (Oryza sativa) [12]; [22]): 25
Plant response rating, Rice (rice (Oryza sativa) [12]; [23]): 30
Plant response rating, Rice (rice (Oryza sativa) [12]; Flood, 31 g ai/ha): 0
Plant response rating, Rice (rice (Oryza sativa) [12]; Flood, 62 g ai/ha): 0
Plant response rating, Sedge, Umbrella [13, 22]: 85
Plant response rating, Sedge, Umbrella [13, 23]: 85
Plant response rating, Sedge, Umbrella ([13]; Flood, 31 g ai/ha): 70
Plant response rating, Sedge, Umbrella ([13]; Flood, 62 g ai/ha): 75
Plant response rating, Ducksalad [14, 22]: 60
Plant response rating, Ducksalad [14, 23]: 65
Plant response rating, Ducksalad ([14]; Flood, 31 g ai/ha): 0
Plant response rating, Ducksalad ([14]; Flood, 62 g ai/ha): 0
Plant response rating, Barnyardgrass [15, 22]: 40
Plant response rating, Barnyardgrass [15, 23]: 40
Plant response rating, Barnyardgrass ([15]; Flood, 31 g ai/ha): 10
Plant response rating, Barnyardgrass ([15]; Flood, 62 g ai/ha): 20
